Measurements reported in patent US20170095505A1, “COMBINATION OF XENON AND AN ANTIOXIDANT TO CONTROL A PARKINSON'S DISEASE-TYPE NEURODEGENERATIVE DISEASE” (L'Air Liquide, Société Anonyme pour I'Etude et …, priority 2014, published 2017).

Test system: TH-positive (dopaminergic) neurons of mesencephalon cultures
Assay: Survival of TH-positive dopaminergic neurons in rat mesencephalon primary cultures, degeneration by chronic treatment with PDC, under controlled gaseous atmosphere
Format: cell-based
Set-up: key to Survival of TH-positive neurons: a favorable response, synonymous with a decrease in the level of neuronal cell death in the presence of the treatments of interest, is denoted by a “+”, “++”, or “+++” sign (+++ = level of reference); a favorable response, synonymous with a decrease in the level of neuronal cell death in the presence of the treatments of interest, is denoted by a “+”, “++”, or “+++” sign; a favorable response, synonymous with a decrease in the level of neuronal cell death in the presence of the treatments of interest, is denoted by a “+”, “++”, or “+++” sign; an unfavorable response is represented by a “−” sign, synonymous with an increase in the neuronal death
Settings: for Survival of TH-positive neurons: D13-D16, analyzed D16; for survival rate of dopaminergic neuronal cells: % of cultures not treated with PDC under 75% nitrogen
Protocol: Cultures are prepared from mesencephalon of rat embryos, taken from gestating female Wistar rats on day 15.5 of gestation. The method for obtaining the mesencephalon cultures comprises obtaining a homogeneous cell suspension via mechanical dissociation, i.e. non-enzymatic dissociation, of the embryonic tissue, using Leibovitz L15 medium (Sigma Aldrich). Aliquots of this suspension are added to Nunc 48-well plates, which were precoated with a thin layer of polyethyleneimine (1 mg/ml, borate buffer, pH 8.3) so as to enable the adhesion of the neuronal cells (cf. Toulorge et al., Faseb J, 2011). The seeding density is between approximately 80 000 and 100 000 cells/cm^2. The mesencephalon cultures are maintained in neurobasal culture medium, containing a B27 cocktail without antioxidant, N2 supplement, glutamine (2 mM) and a penicillin/streptomycin cocktail ([…] al., J Neurochem, 2008). The medium and supplements thereof are available from Life Technologies. Up to the time when the effects of the gases of interest are evaluated, the cultures are placed in a conventional enclosure thermostatically controlled at 37° C., in which the CO2 is maintained at 5% by volume and wherein the atmosphere is saturated with water. No change of culture medium is carried out throughout the culture period. Pharmacological Treatments of the Cultures p The degenerative process is triggered by applying a glutamate reuptake system blocker, L-trans-pyrrolidine-2,4-dicarboxylic acid or PDC (Zuiderwijk et al., Europ J Pharmacol, 1994). The antioxidant, namely Trolox, is added to the cultures before the application of PDC. Once the pharmacological treatments have been carried out, the multiwell plates containing the cells in culture and the plate used to humidify the internal compartment of the chamber are placed on a metal base which receives the Plexiglas incubation chamber. The two parts (base and Plexiglas chamber) are butt-joined together by screwing. A gas mixture of interest comprising (% by volume): 20% of O2, 5% of CO2 and 75% of the gas tested is then injected into the incubation chamber, with open inlet and outlet valves, while at the same time controlling the output flow rate by means of a flow meter. The gases tested are nitrogen and xenon. The reference output flow rate, set for air at 10 liters/min, is corrected according to the density of the mixture used. When the CO2 measurement reaches 5% at the outlet, the injection of the gas mixture is stopped and the chamber is made totally airtight by closing the inlet and outlet valves. The exposure chamber is then placed in an enclosure at 37° C. throughout the experimental protocol. After breaking the […] by opening the inlet and outlet valves and unscrewing the chamber from its base, the cultures are fixed with 4% formaldehyde in PBS for 12 min and then incubated at 4° C. with an anti-TH monoclonal antibody (dilution 1/5000) for 2 days. […] The image acquisition is carried out with an infrared imager of Odyssey type (Li-COR Biosciences) and the quantification of the neurons is carried out by means of the ICY software (Institut Pasteur). The results recorded on the figure appended hereto illustrate the synergistic protective effects of xenon and of Trolox in a cell model mimicking chronic Parkinsonian degeneration. […] The cultures are then recovered for fixing and analysis. The neuronal survival is quantified under the various experimental conditions tested, by counting the number of cell bodies immunopositive for the dopaminergic marker TH. The results are expressed in % (±SEM) of the mean values of the cultures not treated with PDC, maintained under 75% of nitrogen (control condition).

## Cc1c(C)c2c(c(C)c1O)CCC(C)(C(=O)O)O2 (stereo not drawn) [Trolox, 6-hydroxy-2,5,7,8-tetramethylchromane-2-carboxylic acid]
PDC 100 μM + Trolox 0.1 μM, 75% N2
  Survival of TH-positive neurons: −
PDC 100 μM + Trolox 0.3 μM, 75% N2
  Survival of TH-positive neurons: −
PDC 100 μM + Trolox 1 μM, 75% N2
  Survival of TH-positive neurons: +
PDC 100 μM + Trolox 10 μM, 75% N2
  Survival of TH-positive neurons: ++
PDC 100 μM, 75% nitrogen, p<0.05 vs cultures exposed only to PDC in the same atmosphere
  Trolox concentration from which a significant protective effect is produced: ≥ 1 µM
PDC 100 μM, Trolox 0.1-0.3 μM, atmosphere containing 75% nitrogen
  effect of Trolox applied alone on neuronal survival: no significant effect

## O=C(O)[C@H]1CN[C@H](C(=O)O)C1 (relative stereo) [PDC, L-trans-pyrrolidine-2,4-dicarboxylic acid]
PDC 100 μM, 20% O2 + 5% CO2 + 75% N2
  Survival of TH-positive neurons: −
PDC 100 μM, atmosphere containing 75 vol % nitrogen
  survival rate of dopaminergic neuronal cells: 25.4%

## [Xe] [Xe, xenon]
PDC 100 μM, 20% O2 + 5% CO2 + 75% Xe
  Survival of TH-positive neurons: ++
PDC 100 μM, Trolox present or absent, p<0.05 vs corresponding cultures under 75% nitrogen
  survival of dopaminergic neurons treated with PDC, 75% xenon compared with 75% nitrogen: increase in the survival
PDC 100 μM, nitrogen replaced with xenon (75%)
  survival rate of dopaminergic neuronal cells: 57.7%
No PDC (Control group II), 20% O2 + 5% CO2 + 75% Xe
  Survival of TH-positive neurons: +++
